Source: PubChem BioAssay AID248 (DTP/NCI, 2004)
“And” between values parts separate entries of the source, which are not always exact repeats. Equal entries are not always repeated. Toxic doses and inconclusive results are not listed. Cut-off read from the data, not from the text of the source: active = T/C of 150% or more; inactive = T/C below 125%.

Tested on: L1210 leukemia ip in BDF1 mice, survival T/C
Test: NCI In Vivo Anticancer Drug Screen. Data for tumor model L1210 Leukemia (intraperitoneal) in B6D2F1 (BDF1) mice
Conditions: endpoint: mean survival time, higher = longer survival
Procedure, shortened: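 Transplanted-tumor mice were given test agent; controls received vehicle only. Survival readings from the two groups were divided (treated over control).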

[1] = dose: 100.0 mg/kg/injection, schedule: Q04DX003 (ip), vehicle: Klucel (hydroxypropylcellulose) (HPC)
[2] = dose: 200.0 mg/kg/injection, schedule: Q04DX003 (ip), vehicle: Klucel (hydroxypropylcellulose) (HPC)
[3] = dose: 400.0 mg/kg/injection, schedule: Q04DX003 (ip), vehicle: Klucel (hydroxypropylcellulose) (HPC)
[4] = dose: 100.0 mg/kg/injection, schedule: Q01DX009 (ip), vehicle: Klucel (hydroxypropylcellulose) (HPC)
[5] = dose: 200.0 mg/kg/injection, schedule: Q01DX009 (ip), vehicle: Klucel (hydroxypropylcellulose) (HPC)
[6] = dose: 100.0 mg/kg/injection, schedule: Q04DX002 (ip), vehicle: saline with Tween-80
[7] = dose: 200.0 mg/kg/injection, schedule: Q04DX002 (ip), vehicle: saline with Tween-80
[8] = dose: 400.0 mg/kg/injection, schedule: Q04DX002 (ip), vehicle: saline with Tween-80
[9] = dose: 50.0 mg/kg/injection, schedule: Q01DX001 (ip), vehicle: saline
[10] = dose: 50.0 mg/kg/injection, schedule: Q04DX003 (ip), vehicle: saline
[11] = dose: 100.0 mg/kg/injection, schedule: Q01DX001 (ip), vehicle: saline
[12] = dose: 100.0 mg/kg/injection, schedule: Q01DX009 (ip), vehicle: saline
[13] = dose: 100.0 mg/kg/injection, schedule: Q04DX003 (ip), vehicle: saline
[14] = dose: 100.0 mg/kg/injection, schedule: Q01DX001 (ip), vehicle: Klucel (hydroxypropylcellulose) (HPC)
[15] = dose: 200.0 mg/kg/injection, schedule: Q01DX001 (ip), vehicle: Klucel (hydroxypropylcellulose) (HPC)
[16] = dose: 200.0 mg/kg/injection, schedule: Q01DX001 (ip), vehicle: saline
[17] = dose: 100.0 mg/kg/injection, schedule: Q01DX009 (ip), vehicle: saline with Tween-80
[18] = dose: 200.0 mg/kg/injection, schedule: Q01DX009 (ip), vehicle: saline with Tween-80
[19] = dose: 400.0 mg/kg/injection, schedule: Q01DX009 (ip), vehicle: saline with Tween-80

Measured: T/C

O=C(C1=CC(c2ccccc2)=Nc2ccccc2N1)c1ccccc1
inactive: dose: 100.0 mg/kg/injection, schedule: Q04DX003 (ip), vehicle: other 89 % of control | dose: 200.0 mg/kg/injection, schedule: Q04DX003 (ip), vehicle: other 110 % of control | dose: 400.0 mg/kg/injection, schedule: Q04DX003 (ip), vehicle: other 94 % of control

CCCCCCCCCCCCC/C=C/CC(CC(=O)O)C(=O)Nc1cccc2c[n+](CC(=O)c3ccc(NC(C)=O)cc3)ccc12 (centres undefined)
inactive: [1] 111 % of control | [2] 101 % of control | [3] 105 % of control

CCCC(C)Cc1ccc(C(C)=O)cc1 (centres undefined)
inactive: dose: 50.0 mg/kg/injection, schedule: Q01DX009 (ip), vehicle: Klucel (hydroxypropylcellulose) (HPC) 101 % of control | [4] 106 % of control | [1] 104 % of control | [5] 89 % of control | [2] 105 % of control | [3] 105 % of control

CCC(F)C(Br)C(=O)O (centres undefined)
inactive: [6] 101 % of control | [7] 93 % of control | [8] 87 % of control

COC(=O)c1cc(-c2ccccc2)[nH]c1-c1ccc2ccccc2n1
inactive: dose: 100.0 mg/kg/injection, schedule: Q01DX001 (ip), vehicle: steriod suspending solution 100 % of control | dose: 200.0 mg/kg/injection, schedule: Q01DX001 (ip), vehicle: steriod suspending solution 100 % of control | dose: 400.0 mg/kg/injection, schedule: Q01DX001 (ip), vehicle: steriod suspending solution 94 % of control

C[n+]1c(-c2cc(C(F)(F)F)cc(C(F)(F)F)c2)c2cc(N)ccc2c2ccc(N)cc21
inactive: dose: 100.0 mg/kg/injection, schedule: Q01DX005 (ip), vehicle: water 97 % of control

Oc1c(Cl)cc(N=Cc2ccc(N(CCCCl)CCCCl)cc2)cc1Cl
inactive: [1] 101 % of control | [2] 101 % of control | [3] 102 % of control

CC(C)(C)NC(=O)C(Br)c1ccccc1 (centres undefined)
inactive: [6] 94 % of control | [7] 105 % of control | [8] 94 % of control

C/C=C/CC1(CC)C(=O)NC(=O)NC1=O
inactive: dose: 75.0 mg/kg/injection, schedule: Q01DX001 (ip), vehicle: other 98 % of control | dose: 75.0 mg/kg/injection, schedule: Q01DX001 (ip), vehicle: saline 93 % of control | dose: 150.0 mg/kg/injection, schedule: Q01DX001 (ip), vehicle: other 110 % of control | dose: 150.0 mg/kg/injection, schedule: Q01DX001 (ip), vehicle: saline 102 % of control | dose: 300.0 mg/kg/injection, schedule: Q01DX001 (ip), vehicle: other 96 % of control

C[CH2][Ge]1([CH2]C)[CH2]CC2(CCN(CCCN(C)C)C2)C[CH2]1
inactive: dose: 4.0 mg/kg/injection, schedule: Q01DX009 (ip), vehicle: saline 95 % of control | dose: 8.0 mg/kg/injection, schedule: Q01DX009 (ip), vehicle: saline 104 % of control | dose: 16.0 mg/kg/injection, schedule: Q01DX009 (ip), vehicle: saline 102 % of control | dose: 25.0 mg/kg/injection, schedule: Q01DX001 (ip), vehicle: saline 92 % of control | dose: 25.0 mg/kg/injection, schedule: Q01DX009 (ip), vehicle: saline 104 % of control and 107 % of control | dose: 25.0 mg/kg/injection, schedule: Q04DX002 (ip), vehicle: saline 106 % of control and 111 % of control | dose: 25.0 mg/kg/injection, schedule: Q04DX003 (ip), vehicle: saline 95 % of control | dose: 32.0 mg/kg/injection, schedule: Q01DX009 (ip), vehicle: saline 104 % of control | [9] 96 % of control | dose: 50.0 mg/kg/injection, schedule: Q01DX009 (ip), vehicle: saline 98 % of control and 104 % of control | dose: 50.0 mg/kg/injection, schedule: Q04DX002 (ip), vehicle: saline 98 % of control and 109 % of control | [10] 91 % of control | dose: 64.0 mg/kg/injection, schedule: Q01DX009 (ip), vehicle: saline 104 % of control | [11] 110 % of control | [12] 88 % of control and 91 % of control and 92 % of control | [13] 95 % of control

O=CNc1ccc2c(c1)Cc1cc(Br)ccc1-2
inactive: dose: 50.0 mg/kg/injection, schedule: Q04DX003 (ip), vehicle: Klucel (hydroxypropylcellulose) (HPC) 97 % of control | [1] 101 % of control | [2] 97 % of control

O=C(OCc1ccccc1CN1CCCC1)c1cccc(Br)c1
inactive: [14] 95 % of control | [15] 98 % of control

CC(=O)Nc1ccc(/C=N\NC(=O)CCCC(=O)N/N=C/c2ccc(NC(C)=O)cc2)cc1
inactive: [9] 104 % of control | [11] 96 % of control | [12] 91 % of control | [16] 92 % of control | dose: 400.0 mg/kg/injection, schedule: Q01DX001 (ip), vehicle: saline 98 % of control | dose: 400.0 mg/kg/injection, schedule: Q01DX009 (ip), vehicle: saline 88 % of control

CC(=O)Oc1ccc2c(c1)C(=O)CCCCCC(=O)O2
inactive: dose: 50.0 mg/kg/injection, schedule: Q04DX003 (ip), vehicle: saline with Tween-80 95 % of control | dose: 200.0 mg/kg/injection, schedule: Q04DX003 (ip), vehicle: saline with Tween-80 117 % of control

CCC1(C)CCC2C(=CCC3C(C)(C(=O)O)CCCC23C)C1 (centres undefined)
inactive: [17] 91 % of control | [18] 93 % of control | [19] 86 % of control

COc1ccc([N+](=O)[O-])cc1Br
inactive: [17] 100 % of control | [18] 96 % of control | [19] 98 % of control

COc1cc(C)c2cccc(OC)c2n1
inactive: [4] 114 % of control | [1] 105 % of control | [5] 108 % of control | [2] 90 % of control | dose: 400.0 mg/kg/injection, schedule: Q01DX009 (ip), vehicle: Klucel (hydroxypropylcellulose) (HPC) 98 % of control | [3] 94 % of control

CCOC(=O)NC(NC(=O)OCC)C(Br)(Br)Br
inactive: dose: 25.0 mg/kg/injection, schedule: Q01DX001 (ip), vehicle: Klucel (hydroxypropylcellulose) (HPC) 112 % of control | dose: 25.0 mg/kg/injection, schedule: Q04DX002 (ip), vehicle: Klucel (hydroxypropylcellulose) (HPC) 104 % of control | dose: 50.0 mg/kg/injection, schedule: Q01DX001 (ip), vehicle: Klucel (hydroxypropylcellulose) (HPC) 112 % of control | dose: 50.0 mg/kg/injection, schedule: Q04DX002 (ip), vehicle: Klucel (hydroxypropylcellulose) (HPC) 106 % of control | [14] 108 % of control | dose: 100.0 mg/kg/injection, schedule: Q04DX002 (ip), vehicle: Klucel (hydroxypropylcellulose) (HPC) 104 % of control | [15] 116 % of control | dose: 200.0 mg/kg/injection, schedule: Q04DX002 (ip), vehicle: Klucel (hydroxypropylcellulose) (HPC) 102 % of control

O=C1C=CC(=O)N1CCc1ccccc1
inactive: dose: 3.0 mg/kg/injection, schedule: Q01DX009 (ip), vehicle: Klucel (hydroxypropylcellulose) (HPC) 106 % of control | dose: 5.0 mg/kg/injection, schedule: Q01DX009 (ip), vehicle: saline with Tween-80 91 % of control | dose: 6.0 mg/kg/injection, schedule: Q01DX009 (ip), vehicle: Klucel (hydroxypropylcellulose) (HPC) 95 % of control | dose: 10.0 mg/kg/injection, schedule: Q01DX009 (ip), vehicle: saline with Tween-80 87 % of control | dose: 12.0 mg/kg/injection, schedule: Q01DX009 (ip), vehicle: Klucel (hydroxypropylcellulose) (HPC) 103 % of control | dose: 12.5 mg/kg/injection, schedule: Q01DX009 (ip), vehicle: Klucel (hydroxypropylcellulose) (HPC) 97 % of control | dose: 20.0 mg/kg/injection, schedule: Q01DX009 (ip), vehicle: saline with Tween-80 101 % of control | dose: 20.0 mg/kg/injection, schedule: Q04DX003 (ip), vehicle: saline with Tween-80 95 % of control

CCCCOc1c(Cl)c(Cl)c(O)c(Cl)c1Cl
inactive: dose: 50.0 mg/kg/injection, schedule: Q01DX009 (ip), vehicle: acetone 101 % of control | [10] 97 % of control | [11] 93 % of control | dose: 100.0 mg/kg/injection, schedule: Q01DX009 (ip), vehicle: acetone 93 % of control | [13] 94 % of control | [16] 88 % of control | dose: 200.0 mg/kg/injection, schedule: Q04DX003 (ip), vehicle: saline 87 % of control
